Patent US20150342956A1, “METHODS OF TREATMENT FOR CONDITIONS MEDIATED BY SUBSTANCE P” (Beller Pharmaceuticals LLC, priority 2014, published 2015)

Columns and labels:
[1] = test system: INS symptoms in patients with a diagnosis of atypical reflux; assay: Retrospective medical record review: global level of improvement (GLI) with immunotherapy and/or oral medications; format: in vivo, human; conditions: GLI 0-100% score
Description: Some symptoms of INS have previously been associated with atypical reflux. This example describes a retrospective medical record review for cases in which these symptoms were treated with immunotherapy (allergy shots) and/or oral medications (omeprazole, gabapentin, and/or baclofen).
The population for this example included patients 18 years or older with a diagnosis of atypical reflux and a recorded diagnostic code of 530.81 (see, e.g., http://www.cms.gov/Medicare/Coding/ICD9ProviderDiagnosticCodes/index.html). A randomized sample of 307 cases was derived from a total of 650 patients.
Of the 307 cases, 191 (62.2%) patients tested positive for allergy, 74 (24.1%) were negative, and 42 (13.7%) had unknown allergy status. Allergy refers to IgE-mediated allergies such as ragweed, dust mites, trees, grass, pets, stinging insects, peanuts, etc. Of the 191 cases with allergy, 57 (29.8%) had no immunotherapy, 8 (4.2%) had received immunotherapy in the past, and 126 (66.0%) were currently receiving immunotherapy. Of the 126 currently receiving immunotherapy (abbreviated below as “IT”), 70 (55.6%) had reached maintenance dosing (defined as the effective, therapeutic dose; “on main”) and 56 […] had not yet reached maintenance dosing (“not on main”). The period of immunotherapy is about 3-5 years, and individuals typically reach maintenance dosing by the second half of the first year.
Of the 307 cases, 213 (69.3%) were taking one medication and 86 (28%) were taking no medication. Seven patients were taking two medications, and one patient was taking three medications. Three oral medications used to treat INS were compared: high dose acid suppression using omeprazole (40 mg twice a day), baclofen (40 mg twice a day), and gabapentin (300 mg gradually increasing from one to three times a day).
Global level of improvement (GLI) was represented by a 0-100% score. At each clinical visit, patients were asked to estimate the percentage of their overall improvement. Those figures were entered into the medical record as a GLI score. Trials documented as failed (stopped either due to lack of benefit or dose-limiting side effects) or inadequate (dose never titrated to benefit or side effect) are not included in the results below.

[2] = test system: INS symptoms; assay: Exemplary cases of INS: patient-ranked symptom severity (1-10) and GLI score before and after treatment; format: in vivo, human; conditions: for Global Improvement (global level of improvement): three months (gabapentin stopped more than a month prior)
Description: This example describes three exemplary cases of INS. Patients were given a list of INS symptoms and asked to rank those present on a scale of 1-10, with 10 indicating most severe. Treatment was provided (gabapentin, omeprazole, and/or immunotherapy).
Patient two is a person who presented complaining of cough, runny nose, and sneezing. […] They were started on gabapentin (900 mg) and returned in two weeks for re-evaluation. They reported 60% global level of improvement with gabapentin. They were also started on immunotherapy for its long-lasting benefits. They returned for further evaluation three months later to report they had improved by 85% and had stopped the gabapentin more than a month prior to their last visit. Their symptoms were scored for severity from 1 (mild) to 10 (severe) on initial evaluation, after gabapentin, and after three months of immunotherapy. Their scores are below:
Patient three is a person who presented complaining of cough, post nasal drip, and runny nose. […] The patient was started on immunotherapy and returned for follow-up after four months of immunotherapy. Due to their busy schedule the patient had missed several shot visits and their immunotherapy doses were never increased to the maximum, maintenance dose. They were receiving doses at 1/10th of the maintenance dose. They reported 40% improvement. Omeprazole 40 mg two times daily was added to their regimen and they returned for re-evaluation one week later to report 100% improvement. Their symptom scores are below:
Patient one is a child who presented with their parent complaining of shortness of breath and cough. […] Their parent stated that they commonly wet the bed 2-3 times each night. They were started on omeprazole 20 mg twice a day and returned in a week. […] Their parent estimated 45% global level of improvement. The omeprazole was discontinued due to headaches and they were started on gabapentin. Their parent was advised to increase the dose slowly until it seemed to help or was causing side effects. They returned in two weeks for re-evaluation and had achieved 900 mg twice daily on gabapentin. Their parent estimated 85% global level of improvement.

[3] = No IT (no allergy, or positive allergy but no immunotherapy)
[4] = Patient one, omeprazole 20 mg twice a day, one week, then gabapentin 900 mg twice daily, two weeks
[5] = Patient one, score 1-10, 0 = not present, initial visit 0, omeprazole 20 mg twice a day, one week, then gabapentin 900 mg twice daily, two weeks
[6] = Patient one, score 1-10, 0 = not present, initial visit 3, omeprazole 20 mg twice a day, one week, then gabapentin 900 mg twice daily, two weeks
[7] = Patient one, score 1-10, 0 = not present, initial visit 4, omeprazole 20 mg twice a day, one week, then gabapentin 900 mg twice daily, two weeks
[8] = Patient one, score 1-10, 0 = not present, initial visit 5, omeprazole 20 mg twice a day, one week, then gabapentin 900 mg twice daily, two weeks
[9] = Patient one, score 1-10, 0 = not present, initial visit 6, omeprazole 20 mg twice a day, one week, then gabapentin 900 mg twice daily, two weeks
[10] = Patient one, score 1-10, 0 = not present, initial visit 7, omeprazole 20 mg twice a day, one week, then gabapentin 900 mg twice daily, two weeks
[11] = Patient one, score 1-10, 0 = not present, initial visit 8, omeprazole 20 mg twice a day, one week, then gabapentin 900 mg twice daily, two weeks
[12] = Patient one, score 1-10, 0 = not present, initial visit 10, omeprazole 20 mg twice a day, one week, then gabapentin 900 mg twice daily, two weeks
[13] = Patient three, score 1-10, 0 = not present, initial visit 5, immunotherapy four months at 1/10th of maintenance dose, then omeprazole 40 mg two times daily added, one week
[14] = Patient three, score 1-10, 0 = not present, initial visit 6, immunotherapy four months at 1/10th of maintenance dose, then omeprazole 40 mg two times daily added, one week
[15] = Patient three, score 1-10, 0 = not present, initial visit 7, immunotherapy four months at 1/10th of maintenance dose, then omeprazole 40 mg two times daily added, one week
[16] = Patient three, score 1-10, 0 = not present, initial visit 10, immunotherapy four months at 1/10th of maintenance dose, then omeprazole 40 mg two times daily added, one week
[17] = Patient two, score 1-10, 0 = not present, initial visit 5, gabapentin 900 mg, two weeks, immunotherapy, three months
[18] = Patient two, score 1-10, 0 = not present, initial visit 6, gabapentin 900 mg, two weeks, immunotherapy, three months
[19] = Patient two, score 1-10, 0 = not present, initial visit 7, gabapentin 900 mg, two weeks, immunotherapy, three months
[20] = Patient two, score 1-10, 0 = not present, initial visit 8, gabapentin 900 mg, two weeks, immunotherapy, three months
[21] = Patient two, score 1-10, 0 = not present, initial visit 10, gabapentin 900 mg, two weeks, immunotherapy, three months

COc1ccc2[nH]c([S+]([O-])Cc3ncc(C)c(OC)c3C)nc2c1 (stereo not shown) [Omeprazole, omeprazole]
1: Excessive Ear Wax severity score [2, 13] | Hoarse Voice severity score [2, 15] | Itchy Eyes severity score [2, 15]
45%: Global Improvement (global level of improvement, estimated by mother) [2, 4] | Global Improvement (global level of improvement, estimated by mother) ([2]; Patient one, omeprazole 20 mg twice a day, one week, then gabapentin 900 mg twice daily, two weeks, listed as omeprazole)
56.67%: Mean GLI [1, 3]
some headaches: Possible side effect ([2]; Patient one, omeprazole 20 mg twice a day, one week, drug discontinued)
5: Shortness of breath severity score [2, 8] | Sore Throat severity score [2, 10] | Runny Nose severity score [2, 12]
2: Fatigue severity score [2, 7] | Malaise severity score [2, 7] | Watery Eyes severity score [2, 9] | Pollakiuria severity score [2, 11]
0: Vulvodynia severity score [2, 6] | Nausea severity score [2, 7] | Bedwetting severity score [2, 12] | Ear Pressure severity score [2, 13] | Pain in the teeth severity score [2, 13] | Repetitive Sneezing severity score [2, 13] | Epistaxis severity score [2, 14] | Frontal Headache severity score [2, 14] | Pollakiuria severity score [2, 14] | Sore Throat severity score [2, 15] | Watery Eyes severity score [2, 15] | Chest Tightness severity score [2, 16] | Cough severity score [2, 16] | Nasal Congestion severity score [2, 16] | Post Nasal Drip severity score [2, 16] | Runny Nose severity score [2, 16] | Sinus Pressure severity score [2, 16] | Throat Clearing severity score [2, 16] | Vertigo severity score [2, 16]
80.00%: Mean GLI ([1]; IT on maintenance dosing)
41.00%: Mean GLI ([1]; No allergy)
60.00%: Mean GLI ([1]; IT not on maintenance dosing)
4: Cough severity score [2, 11]
8: Frontal Headache severity score [2, 5] | Throat Clearing severity score [2, 11]
3: Chest Tightness severity score [2, 9] | Post Nasal Drip severity score [2, 11]
100%: Global Improvement ([2]; Patient three, immunotherapy four months at 1/10th of maintenance dose, then omeprazole 40 mg two times daily added, one week)

NCC(CC(=O)O)c1ccc(Cl)cc1 (stereo not shown) [Baclofen, baclofen]
70.00%: Mean GLI ([1]; IT on maintenance dosing)
88.33%: Mean GLI ([1]; IT not on maintenance dosing)
53.94%: Mean GLI [1, 3]
65.00%: Mean GLI ([1]; No allergy)

NCC1(CC(=O)O)CCCCC1 [Gabapentin, gabapentin]
2: Fatigue severity score [2, 7] | Malaise severity score [2, 7] | Pollakiuria severity score [2, 11] | Ear Pressure severity score [2, 17] | Watery Eyes severity score [2, 17] | Chest Tightness severity score [2, 19] | Cough severity score ([2]; Patient two, score 1-10, 0 = not present, initial visit 9, gabapentin 900 mg, two weeks, immunotherapy, three months) | Repetitive Sneezing severity score [2, 21]
65.58%: Mean GLI [1, 3]
0: Frontal Headache severity score [2, 5] | Vulvodynia severity score [2, 6] | Nausea severity score [2, 7] | Chest Tightness severity score [2, 9] | Watery Eyes severity score [2, 9] | Sore Throat severity score [2, 10] | Bedwetting severity score [2, 12] | Runny Nose severity score [2, 12]
5: Shortness of breath severity score [2, 8] | Throat Clearing severity score [2, 11]
60%: Global Improvement (global level of improvement) ([2]; Patient two, gabapentin 900 mg, two weeks, immunotherapy) | Global Improvement (global level of improvement) ([2]; Patient two, gabapentin 900 mg, two weeks, immunotherapy, listed as gabapentin)
69.09%: Mean GLI ([1]; IT not on maintenance dosing)
70.29%: Mean GLI ([1]; IT on maintenance dosing)
3: Cough severity score [2, 11] | Post Nasal Drip severity score [2, 11] | Fatigue severity score [2, 18] | Glossodynia severity score [2, 19] | Puffy Eyelids severity score [2, 20] | Itchy Pharynx severity score [2, 21] | Sinus Pressure severity score [2, 21]
55.19%: Mean GLI ([1]; No allergy)
4: Shortness of breath severity score [2, 18] | Itchy Skin severity score [2, 21]
1: Hoarse Voice severity score ([2]; Patient two, score 1-10, 0 = not present, initial visit 2, gabapentin 900 mg, two weeks, immunotherapy, three months) | Pain in the teeth severity score ([2]; Patient two, score 1-10, 0 = not present, initial visit 3, gabapentin 900 mg, two weeks, immunotherapy, three months) | Malaise severity score [2, 17] | Runny Nose severity score [2, 19] | Sore Throat severity score [2, 19] | Throat Clearing severity score [2, 19] | Vertigo severity score [2, 19] | Post Nasal Drip severity score [2, 20] | Frontal Headache severity score [2, 21] | Itchy Eyes severity score [2, 21]
85%: Global Improvement (global level of improvement, estimated by mother) [2, 4] | Global Improvement (global level of improvement, estimated by mother) ([2]; Patient one, omeprazole 20 mg twice a day, one week, then gabapentin 900 mg twice daily, two weeks, listed as gabapentin)
